Like-named read-outs stand apart in the source and are kept apart here. Blank lines part the entries; values can stand above or below the compound they belong to.
Tests used:
BT/Lap^R1.0 = assay: Cell survival (ATPlite/CellTiter-Glo luminescence), alone and combined with lapatinib; assay type: cell-based, human; conditions: BT/Lap^R1.0 cells; for Survival rate %: 72 hours
Description: (§1) Cells plating: a 100 mm culture dish with overgrown adherent cells was digested with 1 ml 0.25% trypsin (GIBCO) at 37° C. for 5 min, and the reaction was terminated with 2 ml culture medium (containing 10% FBS, GIBCO). The cells were scattered and collected, after counting, diluted to 1×10^5 cells/ml, and seeded into a 96-well plate at 50 μl/well, 5000 cells/well, excluding the peripheral circle of wells to which no cell was added, but PBS was added, 60 wells in total, and then incubated at 37° C. for 24 hours for adhering.
(§2) Test after incubation at 37° C. for 72 hours: […] of ATPlite kit substrate solution was added in each well, and vibrated for 3 min, followed by placing aside in darkness for 10 min, and then supernatant 100 μl/well was taken and placed on aluminescence test plate; the luminescence test plate that has been fully incubated was placed in a luminescence test instrument, to read luminescence value.
(§3) (1) Cell survival rate (%)=Experimental group RLU/control group RLU×100%. The experimental data were subjected to data analysis and processing by utilizing GraphPad software.
(§4) (2) The nature of interaction between two drugs was evaluated by using coefficient of drug interaction (CDI), CDI being calculated as follows: CDI=AB/(A×B)×100%. As calculated according to the number of viable cells (luminescence value), when CDI<1, the nature of interaction between two drugs is synergism; when CDI<0.7, the synergism is very significant; when CDI=1, the nature of interaction between two drugs is addition; when CDI>1, the nature of interaction between two drugs is antagonism.

BT474 = assay: as above; assay type: cell-based, human; conditions: BT474 cells; for Survival rate %: 72 hours
Description: as §1, §2, §3, §4

MDA-MB-361 = assay: as above; assay type: cell-based, human; conditions: MDA-MB-361 cells, 72 hours
Description: as §1, §2, §3, §4

SK-BR3 = assay: as above; assay type: cell-based, human; conditions: SK-BR3 cells; for Survival rate %: 72 hours
Description: as §1, §2, §3, §4

SK/Lap^R1.0 = assay: as above; assay type: cell-based, human; conditions: SK/Lap^R1.0 cells, 72 hours
Description: as §1, §2, §3, §4

Hsp70 [1] = target: T1, Hsp70 (Homo sapiens, UniProt P0DMV8); assay: Measurement of affinity for Hsp70 (BIACORE T100, CM5 chip); assay type: binding; conditions: for effect in preliminary screening of binding to Hsp70, compared with positive compound VER-155008: at 10 μm; for Kd: steady state model, 25° C., PBS containing 5% DMSO
T1 construct: purchased Enzo Life Sciences ADI-ESP-550-D
Description: 1. Instrument: BIACORE T100 biomolecular interaction analyzer (GE, USA)
2. Reagents: PBS Buffer (×10), P20, CM5 chip (GE, USA), Hsp70 (human, ADI-ESP-550-D), manufactured by Enzo Life Sciences.
30 mM mother liquor of compound was formulated with DMSO, which was diluted to 2 mM application solution with DMSO before use. 5 μl of the application solution was taken and diluted with 95 μl 1.05×PBS to 100 μM, and then diluted in turn with PBS containing 5% DMSO to 10, 3, 1, 0.3, 0.1, 0.03, 0.01, 0.003 μM, […]. PBS containing 5% DMSO was used as solvent control.
Hsp70 protein was diluted with 10 mmol/L sodium acetate buffer solution (pH 5.0) to 30 μg/ml, and coupled directly on a hydrophilic carboxylmethyl dextran matrix sensor chip M5 through normalized primary amine coupling reaction, RU=11209, and then the chip was balanced for 1-2 h with PBS Buffer at […].
At a flow rate of […], with PBS containing 5% DMSO as mobile phase, at 25° C., the compound was introduced in the sequence of 0.003, 0.01, 0.03, 0.1, 0.3, 1, 3 and 10 μM, with binding time 90 seconds, and dissociation time 120 seconds.
According to binding characteristics between the compounds and protein, the binding constant (equilibrium dissociation constant KD) between drugs and protein was calculated by selecting steady state model with the formula: Conc*Rmax/[conc+KD]+offset.
At a flow rate of […], PBS containing 5% DMSO as mobile phase, at 25° C., the compound was injected in the order of 0.003, 0.01, 0.03, 0.1, 0.3, 1, 3, and 10 μM, with the binding time of 90 sec, and the dissociation time of 120 sec.

MDA-MB-453 = assay: Cell survival (ATPlite/CellTiter-Glo luminescence), alone and combined with lapatinib; assay type: cell-based, human; conditions: MDA-MB-453 cells; for Survival rate %: 72 hours
Description: as §1, §2, §3, §4

Hsp70 [2] = target: T1, Hsp70; conditions: literature value (Cancer Chemother Pharmacol 2010, 66: 535-545); read-out: affinity for Hsp70, literature value; cited from earlier work
[3] = Lapatinib 1 μM alone (Example 30 0 μM)
[4] = Example 30 10 μM alone (Lapatinib 0)
[5] = Example 30 10 μM combined with Lapatinib 1 μM
[6] = Example 30 10 μM with Lapatinib 1 μM, CDI<1 synergism

T1 sequence (P0DMV8 whole entry): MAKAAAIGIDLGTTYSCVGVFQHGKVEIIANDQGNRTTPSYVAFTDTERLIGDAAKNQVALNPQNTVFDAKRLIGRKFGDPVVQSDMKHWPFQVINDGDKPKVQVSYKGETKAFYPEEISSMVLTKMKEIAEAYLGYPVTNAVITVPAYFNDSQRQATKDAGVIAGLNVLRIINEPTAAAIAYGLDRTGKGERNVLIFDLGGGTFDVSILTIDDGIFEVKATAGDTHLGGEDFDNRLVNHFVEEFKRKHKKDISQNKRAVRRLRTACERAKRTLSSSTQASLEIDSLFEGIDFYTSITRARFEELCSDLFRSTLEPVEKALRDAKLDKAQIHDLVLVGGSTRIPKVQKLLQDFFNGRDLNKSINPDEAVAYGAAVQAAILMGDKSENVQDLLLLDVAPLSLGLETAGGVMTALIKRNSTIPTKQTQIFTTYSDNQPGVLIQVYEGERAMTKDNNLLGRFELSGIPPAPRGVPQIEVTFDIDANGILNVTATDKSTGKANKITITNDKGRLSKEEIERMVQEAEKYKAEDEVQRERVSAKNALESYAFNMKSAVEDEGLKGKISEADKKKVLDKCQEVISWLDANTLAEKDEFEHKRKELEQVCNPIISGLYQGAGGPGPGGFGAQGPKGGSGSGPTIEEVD

Structure (SMILES): CS(=O)(=O)CCNCc1ccc(-c2ccc3ncnc(Nc4ccc(OCc5cccc(F)c5)c(Cl)c4)c3c2)o1 [Lapatinib, reference compound]
Survival rate % (BT/Lap^R1.0; [3]): 53.0%
Survival rate % (BT474; [3]): 25.1%
Survival rate % (MDA-MB-361; [3]): 70.4%
Survival rate % (SK-BR3; [3]): 26.3%
Survival rate % (SK/Lap^R1.0; [3]): 92.7%

Structure (SMILES): CN(C(=O)OC(C)(C)C)C1CCN(c2nccc(Cl)n2)CC1 [Example 1, t-butyl N-methyl-N-[1-(4-chloropyrimidin-2-yl)piperidin-4-yl]carbamate]
effect in preliminary screening of binding to Hsp70, compared with positive compound VER-155008 (Hsp70 [1]): equivalent to that of positive compound VER-155008
Kd (Hsp70 [1]): 2190 nM

Structure (SMILES): CN(C(=O)OC(C)(C)C)C1CCN(c2ccnc(Cl)n2)CC1 [Example 2, t-butyl N-methyl-N-[1-(2-chloropyrimidin-4-yl)piperidin-4-yl]carbamate]
effect in preliminary screening of binding to Hsp70, compared with positive compound VER-155008 (Hsp70 [1]): equivalent to that of positive compound VER-155008
Kd (Hsp70 [1]): 247 nM

Structure (SMILES): COc1nccc(N2CCC(N(C)C(=O)OC(C)(C)C)CC2)n1 [Example 5, t-butyl N-methyl-N-[1-(2-methoxypyrimidin-4-yl)piperidin-4-yl]carbamate]
effect in preliminary screening of binding to Hsp70, compared with positive compound VER-155008 (Hsp70 [1]): equivalent to that of positive compound VER-155008

Structure (SMILES): CSc1nccc(N2CCC(N(C)C(=O)O[C@H]3CCN(S(=O)(=O)c4cccs4)C3)CC2)n1 [Example 13, (S)-[1-(2-thienylsulfonyl)pyrrolidin-3-yl] N-methyl-N-[1-(2-methylthiopyrimidin-4-yl)piperidin-4-yl]carbamate]
effect in preliminary screening of binding to Hsp70, compared with positive compound VER-155008 (Hsp70 [1]): equivalent to that of positive compound VER-155008
Kd (Hsp70 [1]): 520 nM

Structure (SMILES): N#Cc1ccc(COC[C@H]2O[C@@H](n3c(NCc4ccc(Cl)c(Cl)c4)nc4c(N)ncnc43)[C@H](O)[C@@H]2O)cc1 [VER-155008]
Kd (Hsp70 [2]): 300 nM

The remaining compounds from weak to strong by Kd (Hsp70 [1]), led by results:

Kd (Hsp70 [1]): 12700 nM
Structure (SMILES): CSc1nccc(N2CCC(N(C)C(=O)OC(C)(C)C)CC2)n1 [Example 6, t-butyl N-methyl-N-[1-(2-methylthiopyrimidin-4-yl)piperidin-4-yl]carbamate]
effect in preliminary screening of binding to Hsp70, compared with positive compound VER-155008 (Hsp70 [1]): equivalent to that of positive compound VER-155008

Kd (Hsp70 [1]): 525 nM
Structure (SMILES): CN(C(=O)OC(C)(C)C)C1CCN(c2cc(Cl)ncn2)CC1 [Example 3, t-butyl N-methyl-N-[1-(6-chloropyrimidin-4-yl)piperidin-4-yl]carbamate]
effect in preliminary screening of binding to Hsp70, compared with positive compound VER-155008 (Hsp70 [1]): equivalent to that of positive compound VER-155008

Kd (Hsp70 [1]): 434 nM
Structure (SMILES): COc1ccnc(N2CCC(N(C)C(=O)Cn3cncn3)CC2)n1 [Example 42, N-methyl-N-[1-(4-methoxypyrimidin-2-yl)piperidin-4-yl]-2-(1H-1,2,4-triazol-1-yl) acetamide]
effect in preliminary screening of binding to Hsp70, compared with positive compound VER-155008 (Hsp70 [1]): equivalent to that of positive compound VER-155008

Kd (Hsp70 [1]): 225 nM
Structure (SMILES): CN(C(=O)Cn1ccnc1)C1CCN(c2nccc(Cl)n2)CC1 [Example 30, N-methyl-N-[1-(4-chloropyrimidin-2-yl)piperidin-4-yl]-[2-(imidazol-1-yl)]acetamide]
Survival rate % (BT/Lap^R1.0; [4]): 92.5%
Survival rate % (BT/Lap^R1.0; [5]): 50.6%
CDI (coefficient of drug interaction) (BT/Lap^R1.0; [6]): 1.03
Survival rate % (BT474; [4]): 93.5%
Survival rate % (BT474; [5]): 24.8%
CDI (coefficient of drug interaction) (BT474; [6]): 1.05
Survival rate % (MDA-MB-361; [4]): 104.1%
Survival rate % (MDA-MB-361; [5]): 69.1%
Survival rate % (MDA-MB-453; [4]): 82.8%
Survival rate % (MDA-MB-453; [5]): 36.6%
CDI (coefficient of drug interaction) (MDA-MB-453; [6]): 1.26
Survival rate % (SK-BR3; [4]): 83.8%
Survival rate % (SK-BR3; [5]): 24.9%
CDI (coefficient of drug interaction) (SK-BR3; [6]): 1.13
Survival rate % (SK/Lap^R1.0; [4]): 94.2%
Survival rate % (SK/Lap^R1.0; [5]): 56.9%
effect in preliminary screening of binding to Hsp70, compared with positive compound VER-155008 (Hsp70 [1]): equivalent to that of positive compound VER-155008

— patent US10301279B2, “Piperidine carboxamide compound, preparation method, and use thereof” (Institute of Pharmacology and Toxicology Academy of …, priority 2013, dated 2019)
